Source: patent US20230089867A1, “CYCLIC PENTAMER COMPOUNDS AS PROPROTEIN CONVERTASE SUBTILISIN/KEXIN TYPE 9 (PCSK9) INHIBITORS FOR THE TREATMENT OF METABOLIC DISORDER” (Novartis AG, priority 2018, published 2023)

Target: human PCSK9 (Homo sapiens, UniProt Q8NBP7)
Experiment: PCSK9 ligand binding TR-FRET assay (interference with binding of human PCSK9 to human LDLR)
Conditions: for Max % inhibition: PCSK9 FRET assay, efficacy (Amax), 100% = 1 uM unlabeled human PCSK9, 0% = DMSO; for IC50: TR-FRET, human PCSK9 Alexa Fluor 647 / human LDLR extracellular domain-Europium Kryptate, read-out: PCSK9 FRET Assay IC50
How it was run: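 Threefold compound dilutions were pre-incubated 30 min with PCSK9, after which 4 nM Europium Kryptate-tagged human LDLR ectodomain was added for a further 2 h.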

Sequence of human PCSK9 (Q8NBP7 153-692): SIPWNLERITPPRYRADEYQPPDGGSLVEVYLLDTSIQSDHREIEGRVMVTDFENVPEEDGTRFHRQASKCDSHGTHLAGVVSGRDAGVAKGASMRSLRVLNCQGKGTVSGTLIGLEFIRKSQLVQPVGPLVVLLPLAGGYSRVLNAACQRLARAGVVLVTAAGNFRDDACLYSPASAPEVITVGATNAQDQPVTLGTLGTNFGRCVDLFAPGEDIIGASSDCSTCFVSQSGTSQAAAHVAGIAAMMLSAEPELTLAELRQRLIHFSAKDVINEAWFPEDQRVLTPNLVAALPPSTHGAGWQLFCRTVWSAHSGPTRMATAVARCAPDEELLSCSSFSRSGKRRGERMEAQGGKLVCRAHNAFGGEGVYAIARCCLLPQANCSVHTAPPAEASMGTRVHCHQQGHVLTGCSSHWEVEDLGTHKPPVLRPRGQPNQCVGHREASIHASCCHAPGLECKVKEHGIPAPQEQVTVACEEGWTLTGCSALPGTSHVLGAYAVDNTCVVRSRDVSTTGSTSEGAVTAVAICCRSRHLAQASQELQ
Sequence of human PCSK9 (Q8NBP7 31-152 partner limits assumed): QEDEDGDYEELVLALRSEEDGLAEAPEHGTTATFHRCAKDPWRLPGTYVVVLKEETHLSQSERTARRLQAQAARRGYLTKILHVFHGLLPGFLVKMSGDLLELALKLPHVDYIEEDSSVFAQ

| Structure (SMILES) | Max % inhibition | IC50 |
| --- | --- | --- |
| CC[C@H]1C(=O)N[C@@H](COC)C(=O)N(C)[C@@H](Cc2ccc(Cl)cc2)CC(=O)NC[C@H](C)N(C)C(=O)[C@H](C)CC(=O)N1Cc1ccc(Cl)cc1Oc1ccc(-c2cnc(CN(C)C)n2C)cc1 [Compound 173, (2S,5S,8S,13S,16R)-1-(4-chloro-2-(4-(2-((dimethylamino)methyl)-1-methyl-1H-imidazol-5-yl)phenoxy)benzyl)-8-(4-chlorobenzyl)-2-ethyl-5-(methoxymethyl)-7,13,14,16-tetramethyl-1,4,7,11,14-pentaazacyclooctadecane-3,6,10,15,18-pentaone] | 84.80% | 73.3 nM |
| COC[C@@H]1NC(=O)[C@H](CC(=O)OC(C)(C)C)N(Cc2ccc(Cl)cc2Oc2ccc(-c3cnc(CN(C)C)n3C)cc2)C(=O)C[C@@H](Cc2ccccc2)C(=O)N(C)[C@@H](C)CNC(=O)C[C@H](Cc2ccc(Cl)cc2)N(C)C1=O [Compound 174, tert-butyl 2-((2S,5S,8S,13S,16R)-16-benzyl-1-(4-chloro-2-(4-(2-((dimethylamino)methyl)-1-methyl-1H-imidazol-5-yl)phenoxy)benzyl)-8-(4-chlorobenzyl)-5-(methoxymethyl)-7,13,14-trimethyl-3,6,10,15,18-pentaoxo-1,4,7,11,14-pentaazacyclooctadecan-2-yl)acetate] | 102.02% | 11.4 nM |
| COC[C@@H]1NC(=O)[C@H](CCC(=O)N2CCOCC2)N(Cc2ccc(Cl)cc2Oc2ccc(-c3cnc(CN(C)C)n3C)cc2)C(=O)C[C@@H](Cc2ccccc2)C(=O)N(C)[C@@H](C)CNC(=O)C[C@H](Cc2ccc(Cl)cc2)N(C)C1=O [Compound 175, (2S,5S,8S,13S,16R)-16-benzyl-1-(4-chloro-2-(4-(2-((dimethylamino)methyl)-1-methyl-1H-imidazol-5-yl)phenoxy)benzyl)-8-(4-chlorobenzyl)-5-(methoxymethyl)-7,13,14-trimethyl-2-(3-morpholino-3-oxopropyl)-1,4,7,11,14-pentaazacyclooctadecane-3,6,10,15,18-pentaone] | 102.55% | 5.8 nM |
| COC[C@@H]1NC(=O)[C@H](C)N(Cc2ccc(Cl)cc2Oc2ccc(-c3cnc4c(c3)CN(C(=O)[C@H]3CCNC3)CC4)cc2)C(=O)C[C@@H](Cc2ccccc2)C(=O)N(C)[C@@H](C)CNC(=O)C[C@H](Cc2ccc(Cl)cc2)N(C)C1=O [Compound 176, (2S,5S,8S,13S,16R)-16-benzyl-1-(4-chloro-2-(4-(6-((S)-pyrrolidine-3-carbonyl)-5,6,7,8-tetrahydro-1,6-naphthyridin-3-yl)phenoxy)benzyl)-8-(4-chlorobenzyl)-5-(methoxymethyl)-2,7,13,14-tetramethyl-1,4,7,11,14-pentaazacyclooctadecane-3,6,10,15,18-pentaone] | 70.99% | 4.3 nM |
| COC[C@@H]1NC(=O)[C@H](C)N(Cc2ccc(Cl)cc2Oc2ccc(-c3cnc(CN(C)C)n3C)cc2)C(=O)C[C@@H](Cc2ccccc2)C(=O)N(C)[C@@H](C(=O)O)CNC(=O)C[C@H](Cc2ccc(Cl)cc2)N(C)C1=O [Compound 177, (2S,5S,8S,13R,16R)-16-benzyl-1-(4-chloro-2-(4-(2-((dimethylamino)methyl)-1-methyl-1H-imidazol-5-yl)phenoxy)benzyl)-8-(4-chlorobenzyl)-5-(methoxymethyl)-2,7,14-trimethyl-3,6,10,15,18-pentaoxo-1,4,7,11,14-pentaazacyclooctadecane-13-carboxylic acid] | 107.53% | 9.8 nM |
| COC[C@@H]1NC(=O)[C@H](C)N(Cc2ccc(OC(F)F)cc2Oc2ccc(-c3cnc(CN(C)C)n3C)cc2)C(=O)C[C@@H](Cc2ccccc2)C(=O)N(C)[C@@H](C)CNC(=O)C[C@H](Cc2ccc(Cl)cc2)N(C)C1=O [Compound 179, (2S,5S,8S,13S,16R)-16-benzyl-8-(4-chlorobenzyl)-1-(4-(difluoromethoxy)-2-(4-(2-((dimethylamino)methyl)-1-methyl-1H-imidazol-5-yl)phenoxy)benzyl)-5-(methoxymethyl)-2,7,13,14-tetramethyl-1,4,7,11,14-pentaazacyclooctadecane-3,6,10,15,18-pentaone] | 103.76% | 0.6 nM |
| COC[C@@H]1NC(=O)[C@H](C)N(Cc2ccc(Cl)cc2Oc2ccc(-c3cnc(CN(C)C)n3C)cc2)C(=O)C[C@@H](Cc2ccc(F)c[n+]2[O-])C(=O)N(C)[C@@H](C)CNC(=O)C[C@H](Cc2ccc(Cl)cc2)N(C)C1=O [Compound 180, 2-(((2S,5S,8S,13S,16R)-1-(4-chloro-2-(4-(2-((dimethylamino)methyl)-1-methyl-1H-imidazol-5-yl)phenoxy)benzyl)-8-(4-chlorobenzyl)-5-(methoxymethyl)-2,7,13,14-tetramethyl-3,6,10,15,18-pentaoxo-1,4,7,11,14-pentaazacyclooctadecan-16-yl)methyl)-5-fluoropyridine 1-oxide] | 102.27% | 3.1 nM |
| CCc1ncc(-c2ccc(Oc3cc(Cl)ccc3CN3C(=O)C[C@@H](Cc4ccccc4)C(=O)N(C)[C@@H](C)CNC(=O)C[C@H](Cc4ccc(Cl)cc4)N(C)C(=O)[C@H](COC)NC(=O)[C@@H]3C)cc2)n1C [Compound 181, (2S,5S,8S,13S,16R)-16-benzyl-1-(4-chloro-2-(4-(2-ethyl-1-methyl-1H-imidazol-5-yl)phenoxy)benzyl)-8-(4-chlorobenzyl)-5-(methoxymethyl)-2,7,13,14-tetramethyl-1,4,7,11,14-pentaazacyclooctadecane-3,6,10,15,18-pentaone] | 54.93% | 10.3 nM |
| COC[C@@H]1NC(=O)[C@H](CCCNC(=O)OC(C)(C)C)N(Cc2ccc(Cl)cc2Oc2ccc(-c3cnc(CN(C)C)n3C)cc2)C(=O)C[C@@H](Cc2ccccc2)C(=O)N(C)[C@H]2CCCC[C@@H]2NC(=O)C[C@H](Cc2ccc(Cl)cc2)N(C)C1=O [Compound 182, tert-butyl (3-((4S,7S,10S,14R,16aS,20aS)-14-benzyl-11-(4-chloro-2-(4-(2-((dimethylamino)methyl)-1-methyl-1H-imidazol-5-yl)phenoxy)benzyl)-4-(4-chlorobenzyl)-7-(methoxymethyl)-5,16-dimethyl-2,6,9,12,15-pentaoxodocosahydrobenzo[l][1,4,7,11,14]pentaazacyclooctadecin-10-yl)propyl)carbamate] | 99.86% | 1.2 nM |
| COC[C@@H]1NC(=O)[C@H](C)N(Cc2ccc(Cl)cc2Oc2ccc(-c3cnc(CN(C)C)n3C)cc2)C(=O)C[C@@H](CC2CCCCC2)C(=O)N(C)[C@@H](C)CNC(=O)C[C@H](Cc2ccc(Cl)cc2)N(C)C1=O [Compound 183, (2S,5S,8S,13S,16R)-1-(4-chloro-2-(4-(2-((dimethylamino)methyl)-1-methyl-1H-imidazol-5-yl)phenoxy)benzyl)-8-(4-chlorobenzyl)-16-(cyclohexylmethyl)-5-(methoxymethyl)-2,7,13,14-tetramethyl-1,4,7,11,14-pentaazacyclooctadecane-3,6,10,15,18-pentaone] | 81.31% | 11.2 nM |
| COC[C@@H]1NC(=O)C(C)N(Cc2ccc(Cl)cc2Oc2ccc(-c3cnc(CN(C)C)n3C)cc2)C(=O)C[C@@H](C)C(=O)N(C)[C@@H](CC(C)C)CNC(=O)C[C@H](Cc2ccc(Cl)cc2)N(C)C1=O (stereo partly drawn) [Compound 184, (5S,8S,13S,16R)-1-(4-chloro-2-(4-(2-((dimethylamino)methyl)-1-methyl-1H-imidazol-5-yl)phenoxy)benzyl)-8-(4-chlorobenzyl)-13-isobutyl-5-(methoxymethyl)-2,7,14,16-tetramethyl-1,4,7,11,14-pentaazacyclooctadecane-3,6,10,15,18-pentaone] | 54.06% | 9.4 nM |
| COC[C@@H]1NC(=O)[C@H](C)N(Cc2ccc(Cl)cc2Oc2ccc(-c3cnc(CN(C)C)n3C)cc2)C(=O)C[C@@H](Cc2ccccc2)C(=O)N(C)[C@@H](C)[C@H](C)NC(=O)C[C@H](Cc2ccc(Cl)cc2)N(C)C1=O [Compound 186, (2S,5S,8S,12S,13S,16R)-16-benzyl-1-(4-chloro-2-(4-(2-((dimethylamino)methyl)-1-methyl-1H-imidazol-5-yl)phenoxy)benzyl)-8-(4-chlorobenzyl)-5-(methoxymethyl)-2,7,12,13,14-pentamethyl-1,4,7,11,14-pentaazacyclooctadecane-3,6,10,15,18-pentaone] | 103.39% | 0.6 nM |
| COC[C@@H]1NC(=O)[C@H](C)N(Cc2ccc(Cl)cc2Oc2ccc(-c3cnc(CN(C)C)n3C)cc2)C(=O)C[C@@H](Cc2ccccc2)C(=O)N(C)[C@H]2CCOC[C@@H]2NC(=O)C[C@H](Cc2ccc(Cl)cc2)N(C)C1=O [Compound 187, (4S,7S,10S,14R,16aS,20aR)-14-benzyl-11-(4-chloro-2-(4-(2-((dimethylamino)methyl)-1-methyl-1H-imidazol-5-yl)phenoxy)benzyl)-4-(4-chlorobenzyl)-7-(methoxymethyl)-5,10,16-trimethyltetradecahydro-1H-pyrano[3,4-l][1,4,7,11,14]pentaazacyclooctadecine-2,6,9,12,15(3H)-pentaone] | 94.30% | 1.3 nM |
| COC[C@@H]1NC(=O)[C@H](C)N(Cc2ccc(Cl)cc2Oc2ccc(-n3cnc(C(=O)NCCO)c3C)cc2)C(=O)C[C@@H](Cc2ccccc2)C(=O)N(C)[C@@H](C)CNC(=O)C[C@H](Cc2ccc(Cl)cc2)N(C)C1=O [Compound 188, 1-(4-(2-(((2S,5S,8S,13S,16R)-16-benzyl-8-(4-chlorobenzyl)-5-(methoxymethyl)-2,7,13,14-tetramethyl-3,6,10,15,18-pentaoxo-1,4,7,11,14-pentaazacyclooctadecan-1-yl)methyl)-5-chlorophenoxy)phenyl)-N-(2-hydroxyethyl)-5-methyl-1H-imidazole-4-carboxamide] | 75.17% | 16.2 nM |
